# Laboratory results: publication PMC6836573, “Mitochondria-targeting fluorescent molecules for high efficiency cancer growth inhibition and imaging” (Chemical Science, 2019)
# pIC50: −log10 of the molar value. Entries after “also recorded” stand apart in the source; their conditions may differ.
# Experiments:
# bladder cancer T24 cell = assay: Cytotoxicity assay (direct cell counting), T24; assay type: cell-based
# Description: (§1) Cell culture, imaging, and cytotoxicity assay
# (§2) RPMI-1640 medium. NIH/3T3 was cultured in DMEM medium. A549 was cultured in F-12K medium. T24 were cultured in McCoy's 5A medium. All culture mediums were supplemented with 10% fetal bovine serum. The cells were incubated at 37 °C in an atmosphere containing 5% CO 2. […]
# (§3) Cytotoxicity assay. All test cell lines were incubated in 96-well plates overnight at a density of 3000 cells/well. The culture medium was replaced with 200 μL of culture medium, into which the testing compound was dispersed at various concentrations (1.95 - 500 μM). After incubating for 3 days, the viable cell numbers were checked and directly counted under microscopy (10X). A minimum of 1mm×1mm area was counted from each of at least three widely separated regions of cell culture. The cell proliferation rate was calculated by the following formula: cell proliferation rate (%) = (average cell number of sample wells / average cell number of control wells) ×100%.
# (§4) The intact culture medium was evaluated as a control. […]
# NSCLC H838 cell = assay: Cytotoxicity assay (direct cell counting), H838; assay type: cell-based; conditions: Homo sapiens, NCI-H838, 72 h, H838 cells; 3 days incubation, viable cells counted
# Description: as §1, §2, §3, §4
# (§5) All animal experiments were performed in compliance with the Guidelines for the Care and Use of Research Animals as established by the Stanford University Animal Studies Committee. Female athymic nude mice (nu/nu) from 4−6 weeks old were obtained from Charles River Laboratories (Boston, MA, USA) and kept under sterile conditions. 5 × 106 human lung adenocarcinoma
# [1] = Cytotoxicity assay (direct cell counting), NIH-3T3; assay type: cell-based; conditions: mouse; NIH-3T3 normal cells; 3 days incubation, viable cells counted
# Description: as §1, §2, §3, §4
# HCC827 NSCLC cell line = assay: Cytotoxicity assay, HCC827; assay type: cell-based; conditions: Homo sapiens; HCC827 cells
# Description: as §1, §2, §3, §4
# H1693 NSCLC cell line = assay: Cytotoxicity assay, H1693; assay type: cell-based; conditions: Homo sapiens, NCI-H1693; H1693 cells
# Description: as §1, §2, §3, §4
# H2030 NSCLC cell line = assay: Cytotoxicity assay, H2030; assay type: cell-based; conditions: Homo sapiens, NCI-H2030; H2030 cells
# Description: as §1, §2, §3, §4
# A549 NSCLC cell line = assay: Cytotoxicity assay, A549; assay type: cell-based; conditions: Homo sapiens; A549 cells
# Description: as §1, §2, §3, §4
# H1944 NSCLC cell line = assay: Cytotoxicity assay, H1944; assay type: cell-based; conditions: Homo sapiens, NCI-H1944; H1944 cells
# Description: as §1, §2, §3, §4
# [2] = test system: human lung cancer HCC827 xenograft; assay: HCC827 s.c. tumor model treatment; assay type: in vivo, nude mice
# Description: HCC827 s.c. tumor model treatment and imaging
# as §5, with “adenocarcinoma […]” for “adenocarcinoma”
# HCC827 cells suspended in 150 µL of PBS were inoculated subcutaneously in the right shoulder […]
# When the tumors reached ~3 mm in diameter, the tumor-bearing mice were administered i.v. with 5BMF (dissolved in 150 µL PBS, with 2 µL DMSO) at 15 mg/Kg on days 1, 3, 5, 7, 9, 11, 13, 15, 17, 19, 21. Correspondingly, untreated tumor-bearing mice serving as controls were administered i.v. with 150 µL 1× PBS pH 7.4 (with 2 µL DMSO) on the same days as the treated mice. Ten mice were used for each group. Length and width of the elliptical tumors were measured by Vernier caliper after every intravenous injection. Modified ellipsoid formula ½ (Length × Width2) was used to calculate the tumor size. The tumor growth was calculated with the ratio of final volume (FV) minus initial volume (IV) to initial volume (IV). […]
# The tumor tissues and some important organs such as liver, kidney, lung, heart were isolated. After frozen, the specimens sectioned at 5-8 µm and processed for a standard hematoxylin-eosin (H&E) staining. Slides were viewed and photographed with the Nanozoomer Digital Pathology Image […]
# The body weights of mice are presented as means ± standard deviation (SD) of n independent measurements. The tumor volumes are presented as means ± standard error of mean (SEM) of n independent measurements. Statistical analysis was performed using a Student’s t-test or Mann-Whitney U test. Statistical significance was assigned for P values <0.05. […]
# [3] = pH stability (integrated fluorescence intensity); assay type: physicochemical; conditions: pH 3.0–10.0 buffers, 24 h, 10 µM
# Description: with 10 µM concentration). pH 3.0~7.0 buffers are sodium hydrogen phosphate and trisodium buffer; pH 7.4~10.0 buffers are phosphate buffered saline. 5BMF was put into different pH buffer with the concentration of 10 µM. 5BMF solutions were taking out at 1, 2, 3, 4, 5, 6, 7, 8, 16, 24 h time point. And their integrated fluorescent intensity (from 450 nm to 650 nm) were measured (excited at 425 nm). All data were analyzed using Origin Pro 9.0 software (OriginLab, Northampton, Massachusetts, USA).
# (1 picture or pasted object on this page, not shown here)
# [4] = Self-assembly into nanoparticles (TEM, DLS); assay type: physicochemical; conditions: 1× pH 7.4 PBS, 5 mM to 0.125 mM
smiles,measurement,setting,value
Cc1cc(Br)cc2c(/C=C/c3cc[n+](C)cc3)c[nH]c12 [5BMF],selectivity indices,bladder cancer T24 cell; 3T3 versus T24 and H838,> 10
same,pIC50,"bladder cancer T24 cell; Homo sapiens, T-24, 72 h, T24 cells, 3 days incubation, viable cells counted",6.09
same,pIC50,NSCLC H838 cell,6.44
same,IC50 at 3 days,[1],11000 nM
same,pIC50,HCC827 NSCLC cell line,5.70
same,pIC50,H1693 NSCLC cell line,5.93
same,pIC50,H2030 NSCLC cell line,6.99
same,pIC50,A549 NSCLC cell line,6.14
same,pIC50,H1944 NSCLC cell line,6.58
same,day from which inhibitory tumor growth effects appeared,[2]; 15 mg/kg IV every other day,9 days
same,increase of mean tumor volume after the 21 day-treatment period,"[2]; 15 mg/kg IV every other day, day 1-21, n = 10, PBS control ∼16 times",~2 times
same,toxicity to mice,"[2]; 15 mg/kg IV, 21 days of treatment",no obvious toxicity
same,tumor growth compared to the PBS treated control group,"[2]; 15 mg/kg IV, 21 days, p = 0.0426 at day 21",significantly suppressed; also recorded: suppressed dramatically; also recorded: decreased dramatically
same,body weight between control and treated groups,"[2]; 15 mg/kg IV, 21 days, p = 0.477",no significant difference
same,major organs' histologic examination (H&E),"[2]; 15 mg/kg IV, over four weeks, compared to control",did not reveal any significant microscopic lesions
same,tumor pathologic section H&E staining,"[2]; HCC827 tumor, 5BMF-treated","caused tumor inflammatory cell infiltration, fibrous tissue proliferation, and cell apoptosis"
same,decay in buffers of different pH,[3],less than 20%
same,size of self-assembled nanoparticles,[4],~120 nm
